The supplement of paper PMC10307832

compound: C[C@@H](Oc1cc(-c2cnn(C3CCNCC3)c2)cnc1N)c1c(Cl)ccc(F)c1Cl [Crizotinib] + Cc1nc(Nc2ncc(C(=O)Nc3c(C)cccc3Cl)s2)cc(N2CCN(CCO)CC2)n1 [Dasatinib] (partner 0.075 µM); assay: relative viability (nuclei count vs DMSO), 5 days (fraction); higher = more cells survive; conditions: first compound 0.01 µM
How it was run: (§1)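 Values are medians from duplicate plates. Each reflects relative viability, defined as the nuclei count of treated wells over that of vehicle wells. Lung cancer cell lines in 1536-well plates were pin-tool dosed one day after seeding with one drug alone or with a fixed anchor-drug dose plus five library-drug doses (not always all listed) in √10 steps, then fixed, stained and imaged at 4× after 5 days.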

Cell Line | relative viability
NCI-H2009 | 0.265
NCI-H2023 | 0.532
NCI-H2085 | 0.209
NCI-H2087 | 0.696
NCI-H2126 | 0.484
NCI-H2170 | 0.642
NCI-H2228 | 0.459
NCI-H2347 | 0.305
NCI-H2405 | 0.244
NCI-H3122 | 0.786
PC-3 [JPC-3] | 1.07
PC-14 | 0.286
RERF-LC-KJ | 0.751
SK-LU-1 | 0.178

same assay, conditions: first compound 0.03162 µM

Cell Line | relative viability
NCI-H322M | 0.251
NCI-H441 | 0.524
NCI-H460 | 0.521
NCI-H520 | 0.192
NCI-H596 | 0.594
NCI-H647 | 0.172
NCI-H727 | 0.398
NCI-H838 | 0.303
NCI-H1355 | 0.823
NCI-H1437 | 0.435
NCI-H1650 | 0.299
NCI-H1651 | 0.389
NCI-H1666 | 0.797
NCI-H1734 | 0.455
NCI-H1755 | 0.46
NCI-H1792 | 0.829
NCI-H1915 | 0.338

Cell Line | relative viability
NCI-H1944 | 0.22
NCI-H1975 | 0.381
NCI-H1993 | 0.483
NCI-H2009 | 0.296
NCI-H2023 | 0.537
NCI-H2085 | 0.232
NCI-H2087 | 0.861
NCI-H2126 | 0.646
NCI-H2170 | 0.506
NCI-H2228 | 0.566
NCI-H2347 | 0.272
NCI-H2405 | 0.237
NCI-H3122 | 0.799
PC-3 [JPC-3] | 0.996
PC-14 | 0.241
RERF-LC-KJ | 0.817
SK-LU-1 | 0.16

same assay, conditions: first compound 0.1 µM

Cell Line | relative viability
NCI-H322M | 0.232
NCI-H441 | 0.497
NCI-H460 | 0.478
NCI-H520 | 0.2
NCI-H596 | 0.677
NCI-H647 | 0.131
NCI-H727 | 0.348
NCI-H838 | 0.313
NCI-H1355 | 0.733
NCI-H1437 | 0.403
NCI-H1650 | 0.311
NCI-H1651 | 0.456
NCI-H1666 | 0.741
NCI-H1734 | 0.397
NCI-H1755 | 0.454
NCI-H1792 | 0.733
NCI-H1915 | 0.315

Cell Line | relative viability
NCI-H1944 | 0.207
NCI-H1975 | 0.349
NCI-H1993 | 0.488
NCI-H2009 | 0.253
NCI-H2023 | 0.449
NCI-H2085 | 0.228
NCI-H2087 | 0.797
NCI-H2126 | 0.569
NCI-H2170 | 0.566
NCI-H2228 | 0.575
NCI-H2347 | 0.312
NCI-H2405 | 0.192
NCI-H3122 | 0.836
PC-3 [JPC-3] | 1.01
PC-14 | 0.245
RERF-LC-KJ | 0.751
SK-LU-1 | 0.181

same assay, conditions: first compound 0.3162 µM

Cell Line | relative viability
NCI-H322M | 0.262
NCI-H460 | 0.424
NCI-H520 | 0.271
NCI-H596 | 0.658
NCI-H647 | 0.191
NCI-H838 | 0.248
NCI-H1355 | 0.598
NCI-H1437 | 0.301
NCI-H1650 | 0.362
NCI-H1651 | 0.403
NCI-H1666 | 0.77
NCI-H1755 | 0.273
NCI-H1944 | 0.179
NCI-H1975 | 0.387
NCI-H1993 | 0.49
NCI-H2009 | 0.249
NCI-H2023 | 0.258
NCI-H2085 | 0.282
NCI-H2126 | 0.557
NCI-H2170 | 0.481
NCI-H2228 | 0.26
NCI-H2347 | 0.244
NCI-H2405 | 0.217
NCI-H3122 | 0.74
PC-3 [JPC-3] | 1.02
PC-14 | 0.201
RERF-LC-KJ | 0.81
SK-LU-1 | 0.189

same assay, conditions: first compound 1 µM

Cell Line | relative viability
NCI-H322M | 0.263
NCI-H441 | 0.51
NCI-H460 | 0.479
NCI-H520 | 0.155
NCI-H596 | 0.722
NCI-H647 | 0.17
NCI-H727 | 0.341
NCI-H838 | 0.261
NCI-H1355 | 0.65
NCI-H1437 | 0.396
NCI-H1650 | 0.299
NCI-H1651 | 0.314
NCI-H1666 | 0.863
NCI-H1734 | 0.555
NCI-H1755 | 0.413
NCI-H1792 | 0.936
NCI-H1915 | 0.317

Cell Line | relative viability
NCI-H1944 | 0.203
NCI-H1975 | 0.43
NCI-H1993 | 0.511
NCI-H2009 | 0.275
NCI-H2023 | 0.389
NCI-H2085 | 0.28
NCI-H2087 | 0.803
NCI-H2126 | 0.545
NCI-H2170 | 0.624
NCI-H2228 | 0.112
NCI-H2347 | 0.25
NCI-H2405 | 0.196
NCI-H3122 | 0.735
PC-3 [JPC-3] | 0.975
PC-14 | 0.238
RERF-LC-KJ | 0.691
SK-LU-1 | 0.159

compound: CC(C)C[C@H](NC(=O)[C@H](CCc1ccccc1)NC(=O)CN1CCOCC1)C(=O)N[C@@H](Cc1ccccc1)C(=O)N[C@@H](CC(C)C)C(=O)[C@@]1(C)CO1 [Carfilzomib] + C[C@@H](Oc1cc(-c2cnn(C3CCNCC3)c2)cnc1N)c1c(Cl)ccc(F)c1Cl [Crizotinib] (partner 1 µM); assay: as above; conditions: first compound 0.001 µM
How it was run: as §1

Cell Line | relative viability
NCI-H322M | 0.935
NCI-H441 | 0.7
NCI-H460 | 0.921
NCI-H520 | 0.759
NCI-H596 | 0.916
NCI-H647 | 0.847
NCI-H727 | 0.84
NCI-H838 | 0.876
NCI-H1355 | 1.05
NCI-H1437 | 0.915
NCI-H1651 | 0.874
NCI-H1666 | 1.07
NCI-H1734 | 0.658
NCI-H1755 | 0.817
NCI-H1792 | 0.946
NCI-H1915 | 0.879
NCI-H1944 | 1.02

Cell Line | relative viability
NCI-H1975 | 0.944
NCI-H1993 | 0.871
NCI-H2009 | 1.07
NCI-H2023 | 0.666
NCI-H2085 | 0.83
NCI-H2087 | 0.876
NCI-H2126 | 0.98
NCI-H2170 | 1.1
NCI-H2228 | 0.49
NCI-H2347 | 0.798
NCI-H2405 | 0.807
NCI-H3122 | 0.3
PC-3 [JPC-3] | 1.01
PC-14 | 0.939
RERF-LC-KJ | 0.899
SK-LU-1 | 0.885

same assay, conditions: first compound 0.003162 µM

Cell Line | relative viability
NCI-H322M | 0.864
NCI-H441 | 1.15
NCI-H460 | 1.01
NCI-H520 | 0.883
NCI-H596 | 1.28
NCI-H647 | 1.04
NCI-H727 | 0.682
NCI-H838 | 0.972
NCI-H1355 | 1.05
NCI-H1437 | 1.04
NCI-H1650 | 0.839
NCI-H1651 | 0.914
NCI-H1666 | 1.14
NCI-H1734 | 0.836
NCI-H1755 | 0.904
NCI-H1792 | 0.938
NCI-H1915 | 0.927

Cell Line | relative viability
NCI-H1944 | 1.2
NCI-H1975 | 0.951
NCI-H1993 | 0.97
NCI-H2009 | 1.14
NCI-H2023 | 0.64
NCI-H2085 | 0.769
NCI-H2087 | 1.03
NCI-H2126 | 1.07
NCI-H2170 | 1.32
NCI-H2228 | 0.389
NCI-H2347 | 0.756
NCI-H2405 | 0.916
NCI-H3122 | 0.286
PC-3 [JPC-3] | 0.99
PC-14 | 0.934
RERF-LC-KJ | 0.801
SK-LU-1 | 1.02

same assay, conditions: first compound 0.01 µM

Cell Line | relative viability
NCI-H322M | 0.938
NCI-H441 | 0.362
NCI-H460 | 0.852
NCI-H520 | 0.665
NCI-H596 | 1
NCI-H647 | 0.713
NCI-H727 | 0.871
NCI-H838 | 0.923
NCI-H1355 | 1.03
NCI-H1437 | 0.898
NCI-H1650 | 0.642
NCI-H1651 | 0.782
NCI-H1666 | 1.08
NCI-H1734 | 0.616
NCI-H1755 | 0.894
NCI-H1792 | 1.01
NCI-H1915 | 0.887

Cell Line | relative viability
NCI-H1944 | 1.09
NCI-H1975 | 0.536
NCI-H1993 | 1.12
NCI-H2009 | 1.09
NCI-H2023 | 0.733
NCI-H2085 | 0.662
NCI-H2087 | 0.827
NCI-H2126 | 0.989
NCI-H2170 | 1.33
NCI-H2228 | 0.666
NCI-H2347 | 0.596
NCI-H2405 | 0.866
NCI-H3122 | 0.259
PC-3 [JPC-3] | 0.985
PC-14 | 0.9
RERF-LC-KJ | 0.86
SK-LU-1 | 0.807

same assay, conditions: first compound 0.03162 µM

Cell Line | relative viability
NCI-H322M | 0.795
NCI-H441 | 0.1
NCI-H460 | 0.0558
NCI-H520 | 0.103
NCI-H596 | 0.77
NCI-H647 | 0.0319
NCI-H727 | 0.223
NCI-H838 | 0.577
NCI-H1355 | 0.695
NCI-H1437 | 0.835
NCI-H1650 | 0.114
NCI-H1651 | 0.383
NCI-H1666 | 0.409
NCI-H1734 | 0.435
NCI-H1755 | 0.498
NCI-H1792 | 0.985
NCI-H1915 | 0.434

Cell Line | relative viability
NCI-H1944 | 1.07
NCI-H1975 | 0.116
NCI-H1993 | 0.807
NCI-H2009 | 0.37
NCI-H2023 | 0.375
NCI-H2085 | 0.368
NCI-H2087 | 0.0787
NCI-H2126 | 1.01
NCI-H2170 | 0.528
NCI-H2228 | 0.149
NCI-H2347 | 0.449
NCI-H2405 | 0.785
NCI-H3122 | 0.303
PC-3 [JPC-3] | 0.828
PC-14 | 0.326
RERF-LC-KJ | 0.78
SK-LU-1 | 0.575

same assay, conditions: first compound 0.1 µM

Cell Line | relative viability
NCI-H322M | 0.252
NCI-H441 | 0.127
NCI-H460 | 0.0115
NCI-H520 | 0.106
NCI-H596 | 0.334
NCI-H647 | 0.0277
NCI-H727 | 0.141
NCI-H838 | 0.122
NCI-H1355 | 0.139
NCI-H1437 | 0.184
NCI-H1650 | 0.139
NCI-H1651 | 0.122
NCI-H1666 | 0.211
NCI-H1734 | 0.111
NCI-H1755 | 0.189
NCI-H1792 | 0.642
NCI-H1915 | 0.069

Cell Line | relative viability
NCI-H1944 | 0.302
NCI-H1975 | 0.131
NCI-H1993 | 0.473
NCI-H2009 | 0.0428
NCI-H2023 | 0.0656
NCI-H2085 | 0.225
NCI-H2087 | 0.091
NCI-H2126 | 0.707
NCI-H2170 | 0.2
NCI-H2228 | 0.17
NCI-H2347 | 0.35
NCI-H2405 | 0.175
NCI-H3122 | 0.274
PC-3 [JPC-3] | 0.376
PC-14 | 0.0895
RERF-LC-KJ | 0.359
SK-LU-1 | 0.152
